Molecular target: T1, RAMP3-CLR (AM2 receptor) (Homo sapiens, UniProt O60896+Q16602)
T1 construct: FLAG; expressed in transfected cells; host or cells: HEK-293 or HEK-293S cells, transient transfection, 1:1 RAMP:CLR
Test: (Ca^2+)i mobilization, HEK-293 cells, RAMP3 + CLR
Assay type: cell-based
Settings: HEK293, percentage of maximal (Ca^2+)i release with 10 μM ionomycin, mean ± S.E., n = 5
Description: HEK-293 cells, provided by Dr. Jügen Müller (University of Aston), were cultured in DMEM supplemented with 10% heat-inactivated FBS and kept at 37 °C in a humidified 95% air, 5% CO2 incubator. HEK-293S cells (a gift from AstraZeneca) were cultured in DMEM supplemented with 8% heat-inactivated FBS and kept at 37 °C in a humidified 95% air, 5% CO2 incubator. HEK-293 cells were transfected with FuGENE 6 (Roche Applied Science) in accordance with the manufacturer's instructions using a 1:3 (w:v) DNA:FuGENE ratio and a 1:1 ratio of RAMP to CLR. HEK-293S cells were seeded into 96-well poly-D-lysine-coated plates at a density of 15,000 cells/well (determined using a Countess^TM cell counter, Invitrogen) 1 day prior to transfection. HEK-293S cells were transiently transfected as described previously ([38]) using a 1:1 ratio of RAMP to CLR. The transfected cell lines were grown for 24–48 h prior to assaying.
Transfected HEK-293 cells were grown to confluence in black, clear bottomed, 96-well plates. […] Ligands were added robotically using a Mithras LB 940 multimode microplate reader in the range of 10 pM to 1 μM, and fluorescence was determined immediately post-injection with an excitation wavelength set to 485 nm and an emission wavelength set to 535 nm. […] Peak magnitude was calculated using five-point smoothing followed by correction against background fluorescence. […]

T1 sequence (Q16602 23-461): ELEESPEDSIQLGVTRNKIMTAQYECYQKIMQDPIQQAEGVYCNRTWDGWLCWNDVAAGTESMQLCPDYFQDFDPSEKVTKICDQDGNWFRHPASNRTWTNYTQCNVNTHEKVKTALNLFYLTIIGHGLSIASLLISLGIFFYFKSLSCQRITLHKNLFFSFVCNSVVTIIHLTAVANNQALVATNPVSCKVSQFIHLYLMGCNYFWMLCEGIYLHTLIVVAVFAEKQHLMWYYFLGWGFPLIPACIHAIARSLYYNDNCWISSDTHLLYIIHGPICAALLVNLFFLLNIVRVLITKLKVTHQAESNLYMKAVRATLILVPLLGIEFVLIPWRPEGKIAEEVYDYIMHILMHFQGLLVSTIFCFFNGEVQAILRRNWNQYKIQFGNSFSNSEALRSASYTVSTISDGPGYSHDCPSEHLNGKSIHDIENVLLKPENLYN
T1 sequence (O60896 24-148): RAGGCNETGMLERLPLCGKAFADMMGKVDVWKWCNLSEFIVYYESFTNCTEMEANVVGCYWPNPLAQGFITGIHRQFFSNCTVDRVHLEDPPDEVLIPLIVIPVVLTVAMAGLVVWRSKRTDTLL

Emax: 56.7 ± 6.6%
SMILES: CC[C@H](C)[C@H](NC(=O)[C@H](CCC(N)=O)NC(=O)[C@H](Cc1c[nH]cn1)NC(=O)[C@H](C)NC(=O)[C@H](CC(C)C)NC(=O)[C@H](CCCCN)NC(=O)[C@H](CCC(N)=O)NC(=O)[C@@H](NC(=O)[C@@H](NC(=O)[C@@H]1CSSC[C@H](NC(=O)CNC(=O)[C@H](Cc2ccccc2)NC(=O)[C@H](CO)NC(=O)[C@H](CCCNC(=N)N)NC(=O)[C@H](CC(C)C)NC(=O)CNC(=O)[C@H](CCC(N)=O)NC(=O)[C@H](Cc2ccccc2)NC(=O)[C@H](CC(N)=O)NC(=O)[C@H](CC(N)=O)NC(=O)[C@H](CCSC)NC(=O)[C@H](CO)NC(=O)[C@H](CCC(N)=O)NC(=O)[C@H](CCCNC(=N)N)NC(=O)[C@@H](N)Cc2ccc(O)cc2)C(=O)N[C@@H](CCCNC(=N)N)C(=O)N[C@@H](Cc2ccccc2)C(=O)NCC(=O)N[C@@H]([C@@H](C)O)C(=O)N1)[C@@H](C)O)C(C)C)C(=O)N[C@@H](Cc1ccc(O)cc1)C(=O)N[C@@H](CCC(N)=O)C(=O)N[C@@H](Cc1ccccc1)C(=O)N[C@H](C(=O)N[C@@H](CC(=O)O)C(=O)N[C@@H](CCCCN)C(=O)N[C@@H](CC(=O)O)C(=O)N[C@@H](CCCCN)C(=O)N[C@@H](CC(=O)O)C(=O)N[C@@H](CC(N)=O)C(=O)N[C@H](C(=O)N[C@@H](C)C(=O)N1CCC[C@H]1C(=O)N[C@@H](CCCNC(=N)N)C(=O)N[C@@H](CO)C(=O)N[C@@H](CCCCN)C(=O)N[C@H](C(=O)N[C@@H](CO)C(=O)N1CCC[C@H]1C(=O)N[C@@H](CCC(N)=O)C(=O)NCC(=O)N[C@@H](Cc1ccc(O)cc1)C(N)=O)[C@@H](C)CC)C(C)C)[C@@H](C)O [AM, adrenomedullin]

Source: publication PMC5063977 (The Journal of Biological Chemistry, 2016)
